Measured values from patent US7838556B2 (priority 2006, dated 2010).
Counter-ions that a name gives are not always drawn. Like-named read-outs stand apart in the source and are kept apart here.

What was measured:
Melatonin, Non-selective = assay type: binding
GABAA receptors [1] = settings: cited from earlier work
[2] = target: T1, GHB receptors (GHB sites) (Rattus norvegicus, UniProt P11275); settings: cited from earlier work
Sodium, Site 2 = assay type: binding
[3] = target: Adrenergic, Beta, Non-selective; assay type: binding
[4] = target: Muscarinic, Non-selective, Central; assay type: binding
[5] = target: Muscarinic, Non-selective, Peripheral; assay type: binding
GABA receptors [6] = settings: cited from earlier work
GABAB receptors [7] = target: T2, GABAB receptors (Rattus norvegicus, UniProt Q9Z0U4); settings: cited from earlier work
GABAA receptors [8] = assay type: binding, rat
GABAB receptors [9] = target: T2, GABAB receptors; assay type: binding
GABA receptors [10] = assay type: binding, rat
[11] = test system: Adrenergic, Alpha 1, Non-selective; assay type: binding
[12] = test system: Calcium Channel, Type L (Benzothiazepine Site); assay type: binding
Dopamine, Non-selective = assay type: binding
[13] = target: Potassium Channel, I[Kr] (hERG) (hr) (Homo sapiens, UniProt Q12809)
[14] = test system: GABA, Chloride, TBOB Site; assay type: binding
Serotonin, Non-selective = assay type: binding
[15] = test system: Calcium Channel, Type L (Dihydropyridine Site); assay type: binding
[16] = test system: Adrenergic, Alpha 2, Non-selective; assay type: binding
Calcium Channel, Type N = Calcium Channel, Type N (Homo sapiens, UniProt Q00975); assay type: binding
GABA, Non-Selective = assay type: binding
[17] = target: Potassium Channel, ATP-Sensitive (Rattus norvegicus, UniProt Q09429); assay type: binding
Adenosine, Non-selective = assay type: binding
Opiod, Non-selective = assay type: binding
Sigma, Non-selective = assay type: binding
[18] = target: T1, GHB receptors (GHB sites); assay type: binding
[19] = target: Calcium Channel, Type L (Dihydropyridine Site); settings: cited from earlier work

T2 sequence (O88871 41-940): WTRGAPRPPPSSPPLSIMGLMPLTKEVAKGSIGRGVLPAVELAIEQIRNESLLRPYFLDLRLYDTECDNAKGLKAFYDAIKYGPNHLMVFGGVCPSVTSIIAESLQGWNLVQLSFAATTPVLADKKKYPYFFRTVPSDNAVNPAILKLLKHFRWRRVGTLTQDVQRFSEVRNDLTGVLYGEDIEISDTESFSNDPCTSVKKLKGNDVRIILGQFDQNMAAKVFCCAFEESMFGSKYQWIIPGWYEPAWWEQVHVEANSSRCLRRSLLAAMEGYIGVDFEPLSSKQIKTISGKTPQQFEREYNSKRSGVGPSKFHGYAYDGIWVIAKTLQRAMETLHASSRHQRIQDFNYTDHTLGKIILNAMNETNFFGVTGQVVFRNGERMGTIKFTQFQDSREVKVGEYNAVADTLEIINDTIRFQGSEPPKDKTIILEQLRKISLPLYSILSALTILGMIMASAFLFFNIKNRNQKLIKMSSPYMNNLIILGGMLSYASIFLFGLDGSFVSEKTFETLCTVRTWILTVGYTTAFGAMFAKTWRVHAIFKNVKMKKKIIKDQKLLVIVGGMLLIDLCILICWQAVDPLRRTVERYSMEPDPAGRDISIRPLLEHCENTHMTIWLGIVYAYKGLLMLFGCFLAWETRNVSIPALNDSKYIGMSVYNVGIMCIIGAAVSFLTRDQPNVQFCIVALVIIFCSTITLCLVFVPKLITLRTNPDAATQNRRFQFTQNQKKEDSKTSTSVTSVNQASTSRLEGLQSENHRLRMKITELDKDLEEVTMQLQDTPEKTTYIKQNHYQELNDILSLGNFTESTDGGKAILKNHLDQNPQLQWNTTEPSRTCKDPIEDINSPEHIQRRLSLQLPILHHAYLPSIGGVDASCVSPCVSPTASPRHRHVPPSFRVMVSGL
T2 sequence (Q9Z0U4 17-960): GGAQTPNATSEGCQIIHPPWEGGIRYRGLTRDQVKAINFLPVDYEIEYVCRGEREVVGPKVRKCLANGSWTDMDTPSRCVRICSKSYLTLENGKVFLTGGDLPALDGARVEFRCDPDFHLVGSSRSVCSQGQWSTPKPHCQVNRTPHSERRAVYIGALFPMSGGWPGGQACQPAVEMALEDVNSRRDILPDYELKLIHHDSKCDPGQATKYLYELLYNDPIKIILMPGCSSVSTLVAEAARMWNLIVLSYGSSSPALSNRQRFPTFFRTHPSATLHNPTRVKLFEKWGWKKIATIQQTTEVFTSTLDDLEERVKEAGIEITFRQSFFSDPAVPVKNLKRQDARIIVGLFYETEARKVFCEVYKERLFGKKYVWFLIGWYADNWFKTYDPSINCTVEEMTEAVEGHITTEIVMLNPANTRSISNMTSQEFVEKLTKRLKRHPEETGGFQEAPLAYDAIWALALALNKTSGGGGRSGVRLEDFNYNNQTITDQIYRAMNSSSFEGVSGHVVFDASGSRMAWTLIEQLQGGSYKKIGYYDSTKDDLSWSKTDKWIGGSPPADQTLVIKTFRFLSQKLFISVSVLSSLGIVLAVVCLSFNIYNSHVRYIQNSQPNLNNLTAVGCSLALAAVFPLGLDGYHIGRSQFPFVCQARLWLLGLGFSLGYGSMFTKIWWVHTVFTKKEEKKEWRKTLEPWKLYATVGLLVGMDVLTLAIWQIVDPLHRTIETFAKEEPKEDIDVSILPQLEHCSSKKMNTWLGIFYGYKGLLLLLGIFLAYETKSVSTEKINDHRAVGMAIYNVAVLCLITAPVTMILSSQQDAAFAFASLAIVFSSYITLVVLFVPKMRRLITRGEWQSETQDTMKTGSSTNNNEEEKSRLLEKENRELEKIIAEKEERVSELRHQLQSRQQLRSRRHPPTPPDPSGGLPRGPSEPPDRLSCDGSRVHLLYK
Potassium Channel, I[Kr] (hERG) (hr), sequence (Q12809 whole entry): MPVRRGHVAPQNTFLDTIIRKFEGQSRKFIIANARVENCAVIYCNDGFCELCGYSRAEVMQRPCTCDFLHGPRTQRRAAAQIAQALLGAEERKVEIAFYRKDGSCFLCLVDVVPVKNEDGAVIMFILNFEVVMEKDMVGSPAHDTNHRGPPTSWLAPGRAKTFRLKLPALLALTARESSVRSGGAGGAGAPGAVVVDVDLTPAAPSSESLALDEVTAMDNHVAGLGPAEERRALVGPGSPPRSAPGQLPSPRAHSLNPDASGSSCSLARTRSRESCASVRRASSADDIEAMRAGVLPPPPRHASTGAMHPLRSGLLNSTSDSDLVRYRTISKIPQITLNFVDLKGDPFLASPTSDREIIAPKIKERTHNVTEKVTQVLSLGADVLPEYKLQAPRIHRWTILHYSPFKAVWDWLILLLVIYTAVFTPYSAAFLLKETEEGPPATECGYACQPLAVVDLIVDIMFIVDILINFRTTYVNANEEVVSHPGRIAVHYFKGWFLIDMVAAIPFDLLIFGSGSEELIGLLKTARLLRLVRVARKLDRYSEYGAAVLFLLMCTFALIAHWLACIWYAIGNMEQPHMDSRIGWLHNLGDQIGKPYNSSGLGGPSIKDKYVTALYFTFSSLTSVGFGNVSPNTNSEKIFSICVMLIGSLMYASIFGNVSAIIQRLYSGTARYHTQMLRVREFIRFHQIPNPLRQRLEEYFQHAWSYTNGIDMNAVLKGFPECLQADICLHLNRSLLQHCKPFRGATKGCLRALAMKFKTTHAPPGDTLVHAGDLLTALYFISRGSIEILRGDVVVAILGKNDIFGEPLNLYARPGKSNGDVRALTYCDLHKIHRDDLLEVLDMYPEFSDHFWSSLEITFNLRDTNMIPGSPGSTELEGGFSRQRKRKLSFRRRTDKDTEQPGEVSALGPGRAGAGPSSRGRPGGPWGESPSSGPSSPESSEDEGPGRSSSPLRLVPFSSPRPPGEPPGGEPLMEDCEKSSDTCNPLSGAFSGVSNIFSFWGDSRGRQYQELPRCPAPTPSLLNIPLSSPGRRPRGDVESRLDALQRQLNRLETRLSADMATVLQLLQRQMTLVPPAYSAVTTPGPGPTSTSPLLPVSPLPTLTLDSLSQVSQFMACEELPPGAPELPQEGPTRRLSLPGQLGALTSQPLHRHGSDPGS
T1 sequence (P11275 whole entry): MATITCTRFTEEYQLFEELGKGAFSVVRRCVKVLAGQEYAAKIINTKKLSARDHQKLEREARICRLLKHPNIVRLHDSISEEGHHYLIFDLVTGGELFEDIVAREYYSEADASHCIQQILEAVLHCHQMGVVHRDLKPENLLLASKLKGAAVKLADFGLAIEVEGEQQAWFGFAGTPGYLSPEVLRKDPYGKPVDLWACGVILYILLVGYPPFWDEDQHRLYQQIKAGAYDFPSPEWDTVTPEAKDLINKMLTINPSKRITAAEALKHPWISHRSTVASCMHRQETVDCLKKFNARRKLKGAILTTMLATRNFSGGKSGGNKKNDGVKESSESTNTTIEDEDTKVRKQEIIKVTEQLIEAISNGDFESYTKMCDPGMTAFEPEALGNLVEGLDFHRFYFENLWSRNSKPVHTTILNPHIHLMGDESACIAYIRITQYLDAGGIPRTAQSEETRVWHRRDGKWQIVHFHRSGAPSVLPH

SMILES: O=C(O)Cc1cccc(O)c1 [3-hydroxyphenylacetic acid]
- Percent displacement of [3H]GABA at 1 Mm, GABAA (GABAA receptors [1]): 44%
- affinity at GHB receptors compared with GHB [2]: greater affinity than GHB

SMILES: CCN1C[C@]2(COC)[C@H](O)C[C@H](OC)[C@@]34[C@@H]5C[C@@]6(O)[C@H](OC(=O)c7ccccc7)[C@@H]5[C@@](OC(C)=O)([C@@H]([C@H](OC)[C@H]23)[C@@H]14)[C@@H](O)[C@@H]6OC [Aconitine, reference compound]
- Ki (Sodium, Site 2; read-out: Ki (M) Ref. Cpd.): 6.67e-07 M

SMILES: C=CCc1ccccc1OCC(O)CNC(C)C (stereo not drawn) [Alprenolol HCl, reference compound]
- Ki ([3]; read-out: Ki (M) Ref. Cpd.): 3.33e-09 M

SMILES: CN1[C@@H]2CC[C@H]1C[C@@H](OC(=O)C(CO)c1ccccc1)C2 (stereo partly drawn) [Atropine sulfate, reference compound]
- Ki ([4]; read-out: Ki (M) Ref. Cpd.): 1.26e-10 M
- Ki ([5]; read-out: Ki (M) Ref. Cpd.): 5.8e-10 M

SMILES: O=C(O)CCCO [Compound 1, Gamma-hydroxybutyric acid]
- affinity for GABA receptors (GABA receptors [6]): weak affinity
- Percent displacement of [3H]GABA at 1 Mm, GABAA (GABAA receptors [1]): 35.5 ± 3.7%
- Percent displacement of [3H]GABA at 1 Mm, GABAB (GABAB receptors [7]): 41.1 ± 3.1%

SMILES: O=C(O)Cc1cccc(O)c1 [Compound 7, 3-hydroxyphenylacetic acid]
- affinity for GABA receptors (GABA receptors [6]): weak affinity
- Percent displacement of [3H]GABA at 1 Mm, GABAA (GABAA receptors [1]): 44.2 ± 2.0%
- Percent displacement of [3H]GABA at 1 Mm, GABAB (GABAB receptors [7]): 14.0 ± 4.0%

SMILES: O=C(O)CCCOc1ccccc1 [Compound 8, reference compound]
- Percent displacement of [3H]GABA at 1 Mm, GABAA (GABAA receptors [8]): 6.3 ± 1.7%
- Percent displacement of [3H]GABA at 1 Mm, GABAB (GABAB receptors [9]): 6.5 ± 1.0%

SMILES: O=C(O)Cc1cccc(OCCc2ccccc2)c1 [Compound 10, phenethyl ether of 3-hydroxyphenylacetic acid]
- affinity at GABA receptors / displacement of [3H]GABA compared with 3-hydroxyphenylacetic acid (GABA receptors [10]): decreased affinity
- Activity [3]: No (key: No: Activity = greater than or equal to 50% Inhibition of binding)
- Percent Inhibition (Average; N = 2) [3]: 43.67%
- Activity (Sodium, Site 2): No (key: No: Activity = greater than or equal to 50% Inhibition of binding)
- Percent Inhibition (Average; N = 2) (Sodium, Site 2): 10.18%
- Activity [11]: No (key: No: Activity = greater than or equal to 50% Inhibition of binding)
- Percent Inhibition (Average; N = 2) [11]: −10.77%
- Activity [12]: No (key: No: Activity = greater than or equal to 50% Inhibition of binding)
- Percent Inhibition (Average; N = 2) [12]: 9.41%
- Percent displacement of [3H]GABA at 1 Mm, GABAA (GABAA receptors [8]): 15.1 ± 7.5%
- Percent displacement of [3H]GABA at 1 Mm, GABAB (GABAB receptors [9]): −1.2 ± 7.3%
- Activity (Dopamine, Non-selective): No (key: No: Activity = greater than or equal to 50% Inhibition of binding)
- Percent Inhibition (Average; N = 2) (Dopamine, Non-selective): 14.51%
- Activity [13]: No (key: No: Activity = greater than or equal to 50% Inhibition of binding)
- Percent Inhibition (Average; N = 2) ([13]; human): −11.94%
- Activity [14]: No (key: No: Activity = greater than or equal to 50% Inhibition of binding)
- Percent Inhibition (Average; N = 2) [14]: −15.01%
- Activity (Serotonin, Non-selective): No (key: No: Activity = greater than or equal to 50% Inhibition of binding)
- Percent Inhibition (Average; N = 2) (Serotonin, Non-selective): −1.83%
- Activity [15]: No (key: No: Activity = greater than or equal to 50% Inhibition of binding)
- Percent Inhibition (Average; N = 2) [15]: 14.52%
- Activity [4]: No (key: No: Activity = greater than or equal to 50% Inhibition of binding)
- Percent Inhibition (Average; N = 2) [4]: 6.98%
- Activity [16]: No (key: No: Activity = greater than or equal to 50% Inhibition of binding)
- Percent Inhibition (Average; N = 2) [16]: 0.21%
- Activity (Calcium Channel, Type N): No (key: No: Activity = greater than or equal to 50% Inhibition of binding)
- Percent Inhibition (Average; N = 2) (Calcium Channel, Type N): −2.31%
- Activity (Melatonin, Non-selective): No (key: No: Activity = greater than or equal to 50% Inhibition of binding)
- Percent Inhibition (Average; N = 2) (Melatonin, Non-selective): 12.69%
- Activity [5]: No (key: No: Activity = greater than or equal to 50% Inhibition of binding)
- Percent Inhibition (Average; N = 2) [5]: −0.77%
- Activity (GABA, Non-Selective): No (key: No: Activity = greater than or equal to 50% Inhibition of binding)
- Percent Inhibition (Average; N = 2) (GABA, Non-Selective): 10.28%
- Activity [17]: No (key: No: Activity = greater than or equal to 50% Inhibition of binding)
- Activity (Adenosine, Non-selective): No (key: No: Activity = greater than or equal to 50% Inhibition of binding)
- Percent Inhibition (Average; N = 2) (Adenosine, Non-selective): −3.45%
- Activity (Opiod, Non-selective): No (key: No: Activity = greater than or equal to 50% Inhibition of binding)
- Percent Inhibition (Average; N = 2) (Opiod, Non-selective): 0.09%
- Activity (Sigma, Non-selective): No (key: No: Activity = greater than or equal to 50% Inhibition of binding)
- Percent Inhibition (Average; N = 2) (Sigma, Non-selective): 4.30%

SMILES: O=C(O)Cc1cccc(OCc2ccccc2)c1 [Compound 11, benzyl ether of 3-hydroxyphenylacetic acid]
- affinity at GABA receptors / displacement of [3H]GABA compared with 3-hydroxyphenylacetic acid (GABA receptors [10]): lower extent
- fold lower affinity for GHB receptors than 3-hydroxyphenylacetic acid [18]: 4 fold
- Percent displacement of [3H]GABA at 1 Mm, GABAA (GABAA receptors [8]): 11.0 ± 6.2%
- Percent displacement of [3H]GABA at 1 Mm, GABAB (GABAB receptors [9]): −4.7 ± 4.7%

SMILES: O=C(O)Cc1cccc(Oc2ccccc2)c1 [Compound 12, phenyl ether of 3-hydroxyphenylacetic acid]
- affinity at GABA receptors / displacement of [3H]GABA compared with 3-hydroxyphenylacetic acid (GABA receptors [10]): decreased affinity
- Percent displacement of [3H]GABA at 1 Mm, GABAA (GABAA receptors [8]): 2.7 ± 0.5%
- Percent displacement of [3H]GABA at 1 Mm, GABAB (GABAB receptors [9]): −5.5 ± 1.2%

SMILES: CCOC(=O)C1=C(C)NC(C)=C(C(=O)OC)C1c1cccc([N+](=O)[O-])c1 (stereo not drawn) [[3H]Nitrendipine]
- Kd [19]: 0.2 nM
